# Laboratory results: patent US20240415918A1, “Polypeptide and its use as a CCK receptor agonist/antagonist” (Centre for Regenerative Medicine & Health, Hong Kong …, priority 2021, published 2024)
# Entries after “also recorded” stand apart in the source; their conditions may differ.
# Key:
# neocortex of senile mice = assay: Long-term potentiation, in vitro field potential recording of brain slices (MED64), senile mice; format: cell-based; conditions: compound injected for five minutes
# Source text: Long-term potentiation (LTP) is considered by researchers to be one of the memory mechanisms. We used an in vitro electrophysiological electrical signal recording method to investigate whether compound HT-267 can induce long-term potentiation in the neocortex of senile mice.
# We used an MED64 low-noise multi-electrode recording system to record the electrical signals of brain slices cultured in vitro.
# [1] = Pharmacokinetics in KM mice after intravenous administration; conditions: male, mouse, plasma, 1 mg/kg
# [2] = system: tri-transgenic Alzheimer's mice (3×Tg-AD); assay: New object recognition experiment, Alzheimer's mice; format: in vivo; conditions: intraperitoneal injection
# Source text: The new object recognition experiment is a highly validated method of cognitive memory, designed by Ennaceur & Delacour (1988) based on the exploration characteristics of rodents to new environments, and this model evaluates the memory function of the tested animal based on the length of time that the animal spends in exploring familiar objects it has seen in the environment and new objects it has not seen. […] The experiment is usually divided into three stages: 1. Adaptation period: let the animal be familiar with the experimental environment, and no objects are placed in the experimental box; 2. Familiarization period: place two identical objects in the experimental box and let the mice explore freely for 10 minutes; 3. Test period: put a new object in the experimental box to replace one of the old objects, and the positions of the objects remain unchanged. The exploration of mice was recorded with video, and the time spent in exploring the old and new objects by mice was analyzed, and the proportion of time spent in exploring the new object by mice in the test period accounting for the total time for exploring the objects was calculated, that is, the recognition index of new objects.
# Adult male tri-transgenic Alzheimer's mice (3×Tg-AD) were housed under standard conditions with free access to food and water. […]
# memory-deficient mice = assay: Morris water maze, memory-deficient mice; format: in vivo; conditions: intraperitoneal injection, CCK4 four times a day 10 days, HT compounds once a day 8 days
# Source text: Adult memory-deficient mice were housed under standard conditions with free access to food and water. Our Morris water maze experiment for testing memory-deficient mice mainly included two parts: positioning navigation experiment and space exploration experiment. The experimental methods were the same as Example 5. We randomized memory-deficient mice into six groups, with the first group given intraperitoneal injection of the CCK4 solution, the second group given intraperitoneal injection of the solvent of CCK4 solution as a control, the third group given intraperitoneal injection of the compound HT-267 solution, the fourth group given intraperitoneal injection of the compound HT-177 solution, the fifth group given intraperitoneal injection of the compound HT-178 solution, and the sixth group given intraperitoneal injection of the solvent of compound solution as a control. In the positioning navigation experiment, the treatment and training methods of the first and the second groups were the same as those of the first and second groups in Example 5, that is, four times of treatment a day, four times of training a day, for a total of 10 days of training. The treatment and training methods of the third to sixth groups were the same as the third and fourth groups in Example 5, that is, one treatment a day, four times of training a day, for a total of 8 days of training. In the space exploration experiment, the spatial memory ability of mice was tested in the same way for each group.
# [3] = system: tri-transgenic Alzheimer's mice (3×Tg-AD); assay: Morris water maze, Alzheimer's mice; format: in vivo; conditions: intraperitoneal injection
# Source text: Adult male tri-transgenic Alzheimer's mice (3×Tg-AD) were housed under standard conditions with free access to food and water. Our Morris water maze experiment for testing Alzheimer's mice mainly included two parts: positioning navigation experiment and space exploration experiment. The positioning navigation experiment lasted for 8-10 days, and the mice were put into the water four times a day from four entry points facing the pool wall, and the time they spent in finding the hidden platform under the water surface (evasion latency) was recorded. The space exploration experiment was to remove the platform after the positioning navigation experiment, and then put the mice into the pool, record their swimming tracks within one minute, investigate the memory of the mice on the original platform, and calculate the proportion of exploration duration of the mice in the quadrant where the original platform was located (target quadrant). Alzheimer's mice were confirmed to have memory deficiency in the Morris water maze experiment, showing not only a longer evasion latency for positioning the hidden platform in the positioning navigation experiment, but also a worse memory backtracking ability in the space exploration experiment. We randomized Alzheimer's mice into four groups, with the first group given intraperitoneal injection of the CCK4 solution, the second group given intraperitoneal injection of the solvent of CCK4 solution as a control, the third group given intraperitoneal injection of the compound HT-267 solution, and the fourth group given intraperitoneal injection of the solvent of HT-267 solution as a control.
smiles,measurement,setting,value
"CSCC[C@H](NC(=O)[C@@H](Cc1c[nH]c2ccccc12)NC(C)=O)C(=O)N[C@@H](CC(=O)O)C(=O)N[C@@H](Cc1cccc(Br)c1)C(N)=O [HT-267, Ac-D-Trp-Met-Asp-Phe(3-Br)-NH2]",basal field potential after administration (long-term potentiation),neocortex of senile mice,"enhanced, and the enhancement lasted for more than one hour"
same,AUC(0-inf),[1],302 ng·h/mL
same,Cmax,[1],1930 ng/mL
same,Tmax,[1],1.98 min
same,half-life,"[1]; T1/2, KM mice male, I.V. 1 mg/kg",96.1 min
same,recognition index of new objects vs control,[2],significantly higher than that of the control group
same,proportion of exploration duration in the target quadrant vs control,memory-deficient mice,significantly higher than that in the control group; also recorded: best effect
same,proportion of exploration duration in the target quadrant vs control,[3],significantly higher than the control group; also recorded: slightly better than the CCK4 administration group
same,spatial exploration tracks in space exploration experiment,[3],more spatial exploration tracks at the original position of the platform
same,evasion latency in positioning navigation experiment vs control,"[3]; CCK4 four times a day 10 days, HT-267 once a day 8 days",shorter than that of the control group
